# Where a SMILES comes first, the peptide text is derived from it. Where no end group is shown, it is not given here. The star is where a group is joined. X1 = CC1(C)C(/C=C/C=C/C=C/C=C2/N(CCCCCC(=O)NCCN3C(=O)CC(*)C3=O)c3ccc4ccccc4c3C2(C)C)=[N+](CCCCS(=O)(=O)[O-])c2ccc3ccccc3c21; ICG maleimide = indocyanine green maleimide
# Experiments:
# [1] = residue X in AcWL-X-LL, relative to virtual glycine; Arg and Lys from pH 1 data; cited from earlier work
# [2] = cited from earlier work
# [3] = high dose of 5 mg/kg of body weight; cited from earlier work
# [4] = current use; cited from earlier work
# [5] = Fluorescence imaging of blood flow in mice (ear, leg, blood samples); assay type: in vivo, nude mice; conditions: for fluorescent signal in blood samples: blood withdrawn 5-120 min after IV; for imaging of blood vessels (ear, leg): 100 μL of 40 μM IV, 5, 30, 60, 90, 120 min
# Procedure: Adult female nude mice (Envigo), 20 g in body mass were used in the study. Fluorescent constructs were given as a single tail vein injection in amounts of 100 μL of 40 μM in PBS. Imaging of mouse ear and leg was performed at 5, 30, 60, 90 and 120 min after construct administration. At 5, 30, 60, 90 and 120 min after construct administration 5 μL of blood was withdrawn from tail (and mixed with 5 μL of anticoagulating solution to preserve blood) while animal was under anesthesia. Mice were euthanized immediately after last imaging point (120 min). Blood collected from all animals was deposited on the glass slide, dried and imaged. Imaging was performed using Novadaq clinical imaging instrument. Autofluorescence was established by imaging mouse with no injection of fluorescent constructs (the level of autofluorescence signal was insignificant compared to the signal after the constructs administration).
# [6] = system: urothelial carcinoma in human bladder specimens; experiment: Ex vivo NIR fluorescence imaging of human bladder specimens after instillation
# Procedure: 22 urothelial carcinoma patients that were scheduled for radical cystectomy were selected over a twelve month period. After radical cystectomy, bladder specimens were immediately removed and irrigated 3 times for 5 min via catheter with non-buffered saline and instilled and incubated with 80 ml of 8 μM or 32.8 μg/ml (unless otherwise is stated, see notes to Table 8) of ICG-Var3 construct or ICG-Cys in PBS pH 7.4 containing 10 mM D-glucose for 60 minutes. Then, the unbound constructs were removed by rinsing with 80 ml of saline solution 3-5 times, the bladder was irrigated thoroughly with buffered saline and opened using a Y incision on the anterior wall. Using a da Vinci Si near-infrared fluorescence imaging system (Firefly®), ex vivo fluorescent and white light imaging of the entire bladder and its parts was performed. The fluorescent spots were marked and standard pathological analysis was carried out to explore the correlation between appearance of fluorescent signal and cancer lesions.
# The specimen was sectioned and submitted after 24 hour fixation in 10% phosphate-buffered formalin according to the standard institutional grossing manual, with emphasis on the marked areas of the bladder. The sections were processed for routine histology into paraffin-embedded blocks. […]
# Statistical parameters were calculated according to the following equations: […]
# 4T1 tumors = experiment: NIR fluorescence imaging of 4T1 tumors in mice after IV or IP injection; assay type: in vivo, BALB/cAnNHsd mice; conditions: 16 h
# Procedure: Adult female nude mice and female BALB/cAnNHsd mice (Envigo), 20-25 g in body mass were used in the study. Mouse mammary cancer 4T1 cells were subcutaneously implanted in the right flank (8×10^5 cells/0.1 mL/flank) of adult female BALB/cAnNHsd mice. Rat bladder cancer AY27 cells were subcutaneously implanted in the right flank (8×10^5 cells/0.1 mL/flank) of adult female nude mice. When tumors reached approximately 5-6 mm in diameter, single tail vein injection or single intraperitoneal injection of fluorophore-pHLIP® solutions in PBS were performed. Fluorescent constructs were used in amounts of 100 μL of 40 μM or 100 μL of 20 μM, or 100 μL of 10 μM, or 100 μL of 5 μM. Imaging of mouse was performed at 16 hours after constructs administration. Skin was removed from the tumor site just before imaging while animal was under gas anesthesia, and mice were euthanized immediately after imaging. Tumor, kidney and liver were harvested, imaged and used for histopathological analysis. Imaging was performed using Stryker clinical imaging instrument. Autofluorescence was established by imaging mouse with no injection of fluorescent constructs (the level of autofluorescence signal was insignificant compared to the signal after the constructs administration).
compound,measurement,setting,value
"C[C@H](N)C(=O)O [Ala, Alanine]",ΔGX^cor (solvation free energy of the side chain),[1],+0.65 kcal/mol
"N=C(N)NCCC[C@H](N)C(=O)O [Arg, Arginine]",ΔGX^cor (solvation free energy of the side chain),[1],-0.66 kcal/mol
"NC(=O)C[C@H](N)C(=O)O [Asn, Asparagine]",ΔGX^cor (solvation free energy of the side chain),[1],+0.30 kcal/mol
"CC1(C)C(/C=C/C=C/C=C/C=C2\N(CCCCS(=O)(=O)[O-])c3ccc4ccccc4c3C2(C)C)=[N+](CCCCS(=O)(=O)[O-])c2ccc3ccccc3c21.[Na+] [ICG, indocyanine green]",blood clearance,[2]; half lifetime is just few minutes,fast blood clearance
same,metabolites,[2]; in vivo,no known metabolites
same,time after which it binds to the regional lymph nodes,[2]; injected outside blood vessels,1 to 2 h
same,time of appearing unconjugated in the bile after injection,"[2]; intravenous injection, depends on liver vascularization and function",about 8 min
same,toxic effects,[3],No significant toxic effects
same,imaging time used for free ICG,[4],2 to 5 min
CC[C@H](C)[C@H](NC(=O)[C@@H]1CCCN1C(=O)[C@H](CC(N)=O)NC(=O)[C@H](CCC(N)=O)NC(=O)[C@H](CCC(=O)O)NC(=O)[C@H](CSC1CC(=O)N(CCNC(=O)CCCCCN2/C(=C/C=C/C=C/C=C/C3=[N+](CCCCS(=O)(=O)[O-])c4ccc5ccccc5c4C3(C)C)C(C)(C)c3c2ccc2ccccc32)C1=O)NC(=O)[C@H](C)N)C(=O)N[C@@H](Cc1ccc(O)cc1)C(=O)N[C@@H](Cc1c[nH]c2ccccc12)C(=O)N[C@@H](C)C(=O)N[C@@H](CCCNC(=N)N)C(=O)N[C@@H](Cc1ccc(O)cc1)C(=O)N[C@@H](C)C(=O)N[C@@H](CC(N)=O)C(=O)N[C@@H](Cc1c[nH]c2ccccc12)C(=O)N[C@@H](CC(C)C)C(=O)N[C@@H](Cc1ccccc1)C(=O)N[C@H](C(=O)N[C@H](C(=O)N1CCC[C@H]1C(=O)N[C@@H](CC(C)C)C(=O)N[C@@H](CC(C)C)C(=O)N[C@@H](CC(C)C)C(=O)N[C@@H](CC(C)C)C(=O)N[C@@H](CC(N)=O)C(=O)N[C@@H](CC(C)C)C(=O)N[C@@H](C)C(=O)N[C@@H](CC(C)C)C(=O)N[C@@H](CC(C)C)C(=O)N[C@H](C(=O)N[C@@H](CC(=O)O)C(=O)N[C@@H](C)C(=O)N[C@@H](CC(=O)O)C(=O)N[C@@H](CCC(=O)O)C(=O)NCC(=O)N[C@H](C(=O)O)[C@@H](C)O)C(C)C)[C@@H](C)O)[C@@H](C)O (stereo partly drawn) [ICG-NpHLIP®] (H-AC(X1)EQNPIYWARYANWLFTTPLLLLNLALLVDADEGT-OH),fluorescent signal in blood samples,[5],significantly reduced signal
CC(C)C[C@H](NC(=O)[C@H](Cc1ccc(O)cc1)NC(=O)[C@H](C)NC(=O)[C@H](CCCNC(=N)N)NC(=O)[C@H](Cc1c[nH]c2ccccc12)NC(=O)[C@@H]1CCCN1C(=O)[C@H](CC(N)=O)NC(=O)[C@H](CCC(N)=O)NC(=O)[C@H](CC(=O)O)NC(=O)[C@H](CC(=O)O)NC(=O)[C@H](CSC1CC(=O)N(CCNC(=O)CCCCCN2/C(=C/C=C/C=C/C=C/C3=[N+](CCCCS(=O)(=O)[O-])c4ccc5ccccc5c4C3(C)C)C(C)(C)c3c2ccc2ccccc32)C1=O)NC(=O)[C@H](C)N)C(=O)N[C@@H](CC(=O)O)C(=O)N[C@@H](CC(C)C)C(=O)N[C@@H](CC(C)C)C(=O)N[C@@H](Cc1ccccc1)C(=O)N1CCC[C@H]1C(=O)N[C@H](C(=O)N[C@@H](CC(=O)O)C(=O)N[C@H](C(=O)N[C@@H](CC(C)C)C(=O)N[C@@H](CC(C)C)C(=O)N[C@@H](CC(C)C)C(=O)N[C@@H](CC(=O)O)C(=O)N[C@@H](CC(C)C)C(=O)N[C@@H](CC(C)C)C(=O)N[C@@H](Cc1c[nH]c2ccccc12)C(=O)N[C@@H](C)C(=O)O)[C@@H](C)O)[C@@H](C)O (stereo partly drawn) [ICG-Var3] (H-AC(X1)DDQNPWRAYLDLLFPTDTLLLDLLWA-OH),fluorescent signal in blood samples,[5],persistence of strong fluorescent signal within 2 hours
same,adverse morphological findings in specimens after incubation,[6],did not show any adverse morphological findings
same,fluorescent signal in tumor relative to kidney and liver,4T1 tumors,signal in tumor was higher than in kidney and similar or slightly less than in liver
CC[C@H](C)[C@H](NC(=O)[C@@H]1CCCN1C(=O)[C@H](CC(N)=O)NC(=O)[C@H](CCC(N)=O)NC(=O)[C@H](CCC(=O)O)NC(=O)[C@H](CSC1CC(=O)N(CCNC(=O)CCCCCN2/C(=C/C=C/C=C/C=C/C3=[N+](CCCCS(=O)(=O)[O-])c4ccc5ccccc5c4C3(C)C)C(C)(C)c3c2ccc2ccccc32)C1=O)NC(=O)[C@H](C)N)C(=O)N[C@@H](Cc1ccc(O)cc1)C(=O)N[C@@H](Cc1c[nH]c2ccccc12)C(=O)N[C@@H](C)C(=O)N[C@@H](CCCNC(=N)N)C(=O)N[C@@H](Cc1ccc(O)cc1)C(=O)N[C@@H](C)C(=O)N[C@@H](CC(=O)O)C(=O)N[C@@H](Cc1c[nH]c2ccccc12)C(=O)N[C@@H](CC(C)C)C(=O)N[C@@H](Cc1ccccc1)C(=O)N[C@H](C(=O)N[C@H](C(=O)N1CCC[C@H]1C(=O)N[C@@H](CC(C)C)C(=O)N[C@@H](CC(C)C)C(=O)N[C@@H](CC(C)C)C(=O)N[C@@H](CC(C)C)C(=O)N[C@@H](CC(=O)O)C(=O)N[C@@H](CC(C)C)C(=O)N[C@@H](C)C(=O)N[C@@H](CC(C)C)C(=O)N[C@@H](CC(C)C)C(=O)N[C@H](C(=O)N[C@@H](CC(=O)O)C(=O)N[C@@H](C)C(=O)N[C@@H](CC(=O)O)C(=O)N[C@@H](CCC(=O)O)C(=O)NCC(=O)N[C@H](C(=O)O)[C@@H](C)O)C(C)C)[C@@H](C)O)[C@@H](C)O (stereo partly drawn) [ICG-WT pHLIP®],fluorescent signal in blood samples,[5],persistence of strong fluorescent signal within 2 hours
"N[C@@H](CO)C(=O)O [Ser, Serine]",ΔGX^cor (solvation free energy of the side chain),[1],+0.69 kcal/mol
"C[C@@H](O)[C@H](N)C(=O)O [Thr, Threonine]",ΔGX^cor (solvation free energy of the side chain),[1],+0.90 kcal/mol
ICG-Hum pHLIP®: ICG maleimide conjugated to the Cys of Hum pHLIP® GCDNNEGFFATLGGEIPLWSDVVLAIEG (SEQ ID NO: 446) (GC(ICG maleimide)DNNEGFFATLGGEIPLWSDVVLAIEG),"imaging of blood vessels (ear, leg)",[5],slow in reaching the best imagibility condition and was fast in decaying
IR800-WT pHLIP®: IR800 maleimide conjugated to the Cys of WT pHLIP® (SEQ ID NO: 444) (AC(IR800 maleimide)EQNPIYWARYADWLFTTPLLLLDLALLVDADEGT),"imaging of blood vessels (ear, leg)",[5],"better in imaging of blood vessels, however not nearly as good as ICG-WT and ICG-Var3 pHLIP®s"

# — patent US12290575B2, “Fluorescent compound comprising a fluorophore conjugated to a pH-triggered polypeptide” (UNIVERSITY OF RHODE ISLAND BOARD OF TRUSTEES, priority 2016, dated 2025)
